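Following 48 hours of exposure in 96-well plates, responses at five concentrations were used to interpolate endpoints linearly. At the GI50, growth is halved.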 Calls of active or inactive are those of the source. No stated cut-off is given here; in the data, active = GI50 up to about 1.1 µM and inactive = higher.
What was measured:
Assay in all cases: growth of human tumour cells (NCI), 48 h
HL-60 = tested on: HL-60
NCI-H460 = tested on: NCI-H460
Hs-578T = tested on: Hs-578T
TK-10 = tested on: TK-10
NCI/ADR-RES = tested on: NCI/ADR-RES
CCRF-CEM = tested on: CCRF-CEM
SNB-19 = tested on: SNB-19
MDA-N = tested on: MDA-N
K562 = tested on: K562
SF-295 = tested on: SF-295
RPMI-8226 = tested on: RPMI-8226
OVCAR-8 = tested on: OVCAR-8
CAKI-1 = tested on: CAKI-1
MDA-MB-435 = tested on: MDA-MB-435
UACC-62 = tested on: UACC-62
SR = tested on: SR
HCC 2998 = tested on: HCC 2998
ACHN = tested on: ACHN
SK-OV-3 = tested on: SK-OV-3
HOP-62 = tested on: HOP-62

Measured: GI50

COC[C@@H](/N=C/C(C)(C)C)C(C)C
inactive: HL-60 > 100 µM | NCI-H460 > 100 µM | Hs-578T > 100 µM | TK-10 72.1 µM | NCI/ADR-RES > 100 µM | CCRF-CEM > 100 µM | SNB-19 > 100 µM | MDA-N > 100 µM | K562 > 100 µM | SF-295 > 100 µM | RPMI-8226 > 100 µM | OVCAR-8 > 100 µM | CAKI-1 > 100 µM | MDA-MB-435 > 100 µM | UACC-62 > 100 µM | SR > 100 µM | HCC 2998 > 100 µM | ACHN > 100 µM | SK-OV-3 > 100 µM | HOP-62 > 100 µM

CC(=O)OCC1C(C(C)OC(C)=O)CCC2C1CCC1(C)C(OC(C)=O)CCC21 (stereo not drawn)
inactive: HL-60 17.1 µM | NCI-H460 16.9 µM | Hs-578T > 10 µM | TK-10 > 100 µM | NCI/ADR-RES 17 µM | CCRF-CEM 19.8 µM | SNB-19 20.4 µM | MDA-N 18.6 µM | K562 11.2 µM | SF-295 21 µM | RPMI-8226 16.5 µM | OVCAR-8 19.7 µM | CAKI-1 37.4 µM | MDA-MB-435 18.7 µM | UACC-62 12.9 µM | SR 23.7 µM | HCC 2998 18.8 µM | ACHN 14.8 µM | HOP-62 21.5 µM

O=C1NC(=O)C(COCc2ccccc2)C2=C1SCCC2 (stereo not drawn)
inactive: HL-60 > 100 µM | NCI-H460 > 100 µM | Hs-578T > 100 µM | NCI/ADR-RES > 100 µM | CCRF-CEM > 100 µM | SNB-19 > 100 µM | MDA-N > 100 µM | K562 > 100 µM | SF-295 > 100 µM | RPMI-8226 > 100 µM | OVCAR-8 > 100 µM | CAKI-1 > 100 µM | MDA-MB-435 > 100 µM | SR > 100 µM | HCC 2998 > 100 µM | ACHN > 100 µM | HOP-62 > 100 µM

COc1cc(/C=C/C2=NN(c3cccc(S(=O)(=O)O)c3)C3(C2)C(Cl)C(=O)N3c2nc3ccccc3s2)ccc1O (stereo not drawn)
inactive: HL-60 21.4 µM | NCI-H460 32.7 µM | Hs-578T 50 µM | TK-10 14.8 µM | NCI/ADR-RES 27.4 µM | CCRF-CEM 17.7 µM | SNB-19 65.9 µM | MDA-N 25.2 µM | K562 20.8 µM | RPMI-8226 16.1 µM | OVCAR-8 18.3 µM | CAKI-1 17 µM | MDA-MB-435 17.1 µM | UACC-62 18.5 µM | SR 15.6 µM | HCC 2998 20.7 µM | ACHN 16.7 µM

CCOC(=O)CC1(N)CC2c3ccccc3OC(=O)C2C(=O)N1 (stereo not drawn)
inactive: HL-60 > 100 µM | NCI-H460 > 100 µM | Hs-578T > 100 µM | TK-10 > 100 µM | NCI/ADR-RES > 100 µM | CCRF-CEM > 100 µM | SNB-19 > 100 µM | MDA-N > 100 µM | K562 > 100 µM | RPMI-8226 > 100 µM | OVCAR-8 > 100 µM | CAKI-1 > 100 µM | MDA-MB-435 > 100 µM | UACC-62 > 100 µM | SR > 100 µM | HCC 2998 > 100 µM | ACHN > 100 µM | HOP-62 > 100 µM

CCCCCCCCCCCCCCCCOC[C@@H](COC(c1ccccc1)(c1ccccc1)c1ccccc1)O[PH](=S)OC (stereo partly drawn)
inactive: HL-60 14.8 µM | NCI-H460 1.6 µM | Hs-578T 15.5 µM | TK-10 11.5 µM | NCI/ADR-RES 22.6 µM | CCRF-CEM 11.7 µM | SNB-19 4.79 µM | MDA-N 2.24 µM | K562 16.4 µM | SF-295 1.41 µM | RPMI-8226 3.4 µM | OVCAR-8 12.1 µM | CAKI-1 11.6 µM | MDA-MB-435 2.24 µM | UACC-62 3.81 µM | SR 2.33 µM | ACHN 15.7 µM | SK-OV-3 5.68 µM

O=C(Nc1cccc(F)c1)c1cc2ccc(O)cc2o/c1=N\c1ccccc1F
inactive: HL-60 2.45 µM | NCI-H460 3.15 µM | Hs-578T 1.57 µM | NCI/ADR-RES 2.9 µM | CCRF-CEM 2.47 µM | SNB-19 5.31 µM | MDA-N 4.82 µM | K562 2.01 µM | SF-295 8.39 µM | RPMI-8226 1.69 µM | OVCAR-8 2.51 µM | CAKI-1 4.39 µM | MDA-MB-435 3.89 µM | UACC-62 4.38 µM | SR 2.47 µM | HCC 2998 9.59 µM | ACHN 3.34 µM | SK-OV-3 5.36 µM | HOP-62 8.89 µM
